Reference: patent US8980952B2, “Methods for treating brain swelling with a compound that blocks a non-selective cation channel” (University of Maryland, Baltimore, priority 2002, dated 2015)
Values joined by “and” are separate entries in the source; they are usually repeats but may differ in a detail not shown here. Equal values may be shown once. “Also recorded” adds a separate entry of the source. Read-outs that look alike come from different tables or passages of the source.

What was measured:
[1] = system: native reactive astrocytes (NRAs); assay type: cell-based, rat
[2] = system: native reactive astrocytes (NRAs); assay: Necrotic/apoptotic cell death by propidium iodide and annexin V staining; assay type: cell-based, rat
[3] = system: native reactive astrocytes (NRAs); assay: Cell blebbing and swelling after ATP depletion (SEM, phase contrast microscopy); assay type: cell-based, rat
[4] = system: SUR1; assay: SUR1 knockdown by antisense oligodeoxynucleotide infusion at gelfoam implantation site; assay type: in vivo, rat; conditions: ODN infused 14 days; vs. scrambled sequence ODN
[5] = system: native reactive astrocytes (NRAs); assay: Current clamp recording of membrane potential, nystatin-perforated patch; assay type: cell-based, rat
[6] = Thromboembolic (TE) MCA stroke model; assay type: in vivo, rat; conditions: for Infarct volume, percent of hemisphere volume: 75 ng/hr
[7] = Thromboembolic stroke with tPA reperfusion at 6 hr, hemorrhagic conversion; assay type: in vivo, rat; conditions: 24 hr after stroke, co-treated with tPA 10 mg/kg i.v. at 6 hr; loading dose 1.5 μg/kg i.v. plus s.c. pump
[8] = system: MMP-9 & MMP-2; assay: Zymography of gelatinase activity of recombinant enzyme and stroke tissue; assay type: biochemical; conditions: glibenclamide 10 μM; MMP inhibitor II 300 nM
Protocol: Activation of MMP-9 & MMP-2 in stroke tissue was compared to controls. […] Calbiochem). Next, the supernatants underwent a gelatinase purification process with gelatin-Sepharose 4B (Pharmacia), and Zymography was performed on the purified supernatants in sodium dodecyl sulfate gels containing gelatin (Rosenberg, 1994). Dried gels were scanned with a transparency scanner, and images were analyzed by densitometry. The relative lysis of an individual sample was expressed as the integrated density value of its band and divided by the protein content of the sample.

[9] = system: gliotic capsule; conditions: for GFAP response / gliotic capsule: glibenclamide 1 μM or diazoxide 10 μM at 0.5 μl/hr × 7 days
[10] = Rodent model of stroke, glibenclamide vs. saline by subcutaneous mini-pump; assay type: in vivo, rat
[11] = glibenclamide 1 μM with Na azide 1 mM

## iberiotoxin: toxin partially blocking large conductance Ca2+-activated K+ channel currents (QFTDVDCSVSKECWSVCKDLFGVDRGKCMGKKCRCYQ)
[1]
  Block of large outward currents: partially blocked

## CC1=NS(=O)(=O)c2cc(Cl)ccc2N1 [diazoxide]
[2]
  Necrotic death by channel opener: necrotic death can also be induced by diazoxide
[3]; no ATP depletion
  Blebbing with channel opener alone: blebbing occurs even without ATP depletion; also recorded: developed progressive blebbing consistent with cytotoxic edema

## SUR1KD: SUR1 antisense oligodeoxynucleotide 5′-GGCCGAGTGGTTCTCGGT-3′ (SEQ ID NO: 9) (DNA, backbone not given here)
[4]
  SUR1 expression in gliotic capsule (immunoblot): significant reduction in SUR1 expression
[3]; cells from SUR1KD
  Membrane blebbing after Na azide: not observed
[5]
  Depolarization on application of Na azide: 8.7±1.7 mV

## OC[C@@H](O)[C@@H](O)[C@H](O)[C@H](O)CO [mannitol]
[3]; 50 mM mannitol, 350 mOsm
  Delay of bleb formation after exposure to NaN3: > 30 min
[5]; 50 mM mannitol
  Effect on NaN3-induced depolarization: neither the time course nor the magnitude of the depolarization is affected

## charybdotoxin: toxin partially blocking large conductance Ca2+-activated K+ channel currents
[1]
  Block of large outward currents: partially blocked

## CC[N+](CC)(CC)CC.[Cl-] [TEA, tetraethylammonium chloride]
[1]
  Block of large outward currents: partially blocked

## Nc1ccncc1 [4-AP, 4-aminopyridine]
[1]
  Outward current remaining in presence of charybdotoxin: further blocked

## COc1ccc(Cl)cc1C(=O)NCCc1ccc(S(=O)(=O)NC(=O)NC2CCCCC2)cc1 [glibenclamide]
8 hr after MCAO, supplemental glucose 1 gm/kg i.p. at 4 hr
  Reduction of edema with added glucose: just as effective in reducing edema
8 hr after stroke, saline 3.4%
  Rise of water in involved hemisphere: 2.0%
8 hr after stroke, saline 5.4%
  Rise of water in TTC(+) tissue: 2.5%
8 hr after stroke, saline 78.7±1.0%
  Water in TTC(−) tissue of involved hemisphere: 78.6±0.4%
8 hr after stroke, saline 81.3±0.5%, control hemisphere 77.9±0.2%
  Water content of involved hemisphere: 79.9±0.3%
8 hr after stroke, saline 83.4±1.1%
  Water in TTC(+) tissue of involved hemisphere: 80.5±0.3%
rat, in vivo
  Serum glucose: 93 ± 3 mg/dL
rat, in vivo, sc
  Mortality during 7 days after MCA stroke: 24%
[6]; 2 days after MCAO
  Infarct volume, percent of hemisphere volume: 16.7±2.2%
[6]; 48 hr after stroke, 10 male rats per group
  Stroke volume, percent of hemisphere volume: 15.5±2.3%
[6]; 7 days after MCAO
  Infarct volume, percent of hemisphere volume: 15.2±1.2%
[6]; begun 2 hr after stroke, loading dose 3.3 μg/kg i.p.
  Stroke volume vs. saline at 48 hr: significant reduction in stroke volume
[6]; begun 4 hours after MCAO, loading dose 3.3 μg/kg i.p.
  Stroke volume vs. saline at 48 hr: not statistically significant
[6]; begun 4 hours after MCAO, loading dose 33.0 μg/kg i.p. with glucose 1 gm/kg
  Stroke volume vs. saline at 48 hr: statistically significant reductions in stroke volume
[6]; begun 6 hours after MCAO, loading dose 33.0 μg/kg i.p. with glucose 1 gm/kg
  Stroke volume vs. saline at 48 hr: statistically significant reductions in stroke volume
[6]; infusion 75 ng/hr begun immediately after stroke, no loading dose
  Stroke volume vs. saline at 48 hr: significant reduction in stroke volume
[7]
  Animals with hemorrhagic conversion: 1 of 6 and ⅕
[2]; [11]
  annexin V labeling (apoptotic death): not significantly different
  number of PI-positive cells (necrotic death): dramatically decreased; also recorded: largely prevented
[3]; pretreated cells, observed 30 min
  Blebbing on NaN3 in presence of glibenclamide: does not cause blebbing; also recorded: remained phase bright with no pathological deterioration
[8]
  Gelatinase activity: did not directly inhibit gelatinase activity
[9]
  GFAP response / gliotic capsule: well defined gliotic capsule
[9]; listed as Glibenclamide
  GFAP response / gliotic capsule: reduced the overall injury response
[9]; infusion into site of gelatin sponge
  Inflammatory response / PMN infiltration: minimized the inflammatory response
[10]; rat, in vivo, sc
  3-day mortality after stroke: 28%
[10]; vs. saline-treated rats, n=5 per group
  Excess water in stroke hemisphere: only half as much excess water

## C[C@@H]1O[C@@H](O[C@H]2C[C@@H](O)[C@]3(CO)[C@H]4[C@H](O)C[C@]5(C)[C@@H](C6=CC(=O)OC6)CC[C@]5(O)[C@@H]4CC[C@]3(O)C2)[C@H](O)[C@H](O)[C@H]1O [ouabain]
[5]; 1 mM ouabain
  Depolarization: small reversible depolarization

## [N-]=[N+]=[N-] [NaN3, Sodium azide]
[3]
  Time to apparent blebbing after exposure: 10 to 15 min and 7 to 10 min
[5]
  Em after depolarization: −4.3±0.9 mV
